Here are results for three compounds from patent US10570124B2, “Deoxycytidine kinase binding compounds” (THE REGENTS OF THE UNIVERSITY OF CALIFORNIA, priority 2016, dated 2020).

pIC50: −log10 of the molar value. Entries after “also recorded” stand apart in the source; their conditions may differ. Read-outs that look alike come from different tables or passages of the source.

For assay [1], the target named is T1, dCK (Homo sapiens, UniProt P27707).
T1 construct: endogenous in cells; host or cells: CEM cells
Nature of the assay: Inhibition of [3H]-deoxycytidine (dCyd) uptake by CEM cells. The class given is cell-based. As to conditions: read-out: dCKi-IC-50. The method, then: 50,000 CEM cells/well were added to Millipore MultiScreen GV 96 well plates. Cells were resuspended at […] and incubated for 30 minutes at 37° C. The drug dilution plate was prepared by starting with an initial drug concentration of 10 mM in DMSO, and proceeding to make 1:5 dilutions for drug. […] and mixed by pipetting 10 times before removing 10 uL for next well (1:5 serial dilutions). The media and tritiated deoxycytidine was mixed together. […] of media/probe mixture was added to each well of an Optiplate. […] from drug plate was added to each well in the Optiplate to obtain drug/media/probe mixture and mixed. […] of drug/media/probe mixture from Optiplate was added to the cell plate and incubate at 37° C. for 1 hour. The cell plate was placed on vacuum to aspirate, and then washed with ice cold PBS: […] 1×PBS 4 times. The backing of the plate was peeled off, and the plate was placed in dryer for at least 30 minutes or until dry at 37° C. […] Scintillation fluid per well was added, and the plate was sealed with clear plate seal. The plate was read on the Microbeta instrument.

The target of assay [2] is dCK (Mus musculus, UniProt P43346). The experiment in a line: Inhibition of dCK activity in vivo by [18F]L-FAC PET/CT imaging. Conditions: mice, IP injection, [18F]L-FAC 4 h after treatment.
Method: [^18F]L-FAC PET/CT scans were performed as described in Shu, C.
Assay [3] deals with HUKEMIA Acute Myeloid Leukemia model AM-7577. Nature of the assay: Acute myeloid leukemia study, HUKEMIA model AM-7577 in NOD/SCID mice. In kind it is in vivo, Mus Musculus. Conditions: for ILS (increase in life-span): vs vehicle group. The method, then:
In this study, NOD/SCID mice were injected (i.v.) with cells from a human donor diagnosed with AML (IDH2, FLT3-ITD, DNMT3A, and CEBPA mutations identified). Tumor burden was assessed by evaluation of human CD45 positive leukemia cells using FACS. The primary end point was animal survival. Median survival time (MST) and increase in life-span (ILS) were calculated for all animals.
The animals were inoculated HUKEMIA® Model AM-7577. The vehicle and treatment injections were started on Day 9 post cell inoculation Day 10 post cell inoculation, respectively.
Weekly Monitoring: Body weight was monitored twice a week. Human leukemia cells was detected by FACS weekly by CD45.
Endpoints and/or Termination: The end points varied according to the tumor burden growth in Vehicle group. The major end point was animal survival. The survival of all animals was followed and median survival time (MST) was calculated for each group. The increase in life-span (ILS) was calculated as follows: ILS (%)=100×[(Median Survival Time of drug treated group/Median Survival Time of vehicle group)−1](%).
Statistical Analysis: Data was evaluated using one way ANOVA. All data was analyzed using Prism 5.0 and IBM SPSS Statistics 19.0. p<0.05 was considered to be statistically significant.

The subject of assay [4] is p185BCR-ABL/Arf-/- pre-B ALL cells. The experiment in a line: Acute lymphoblastic leukemia (ALL) model, bioluminescence imaging. The class given is in vivo, NSG mice. As to conditions: 50 mg/kg, days 4, 6, 8, 11 after inoculation. How it is done:
The efficacy of Compound 9R and (R)-DI-82 single agent therapy against short-term cultures of murine BCR-ABL (p185), Arf^−/− pre-B ALL cells (p185^BCR-ABL/Arf^−/−) was assessed. This assay was previously described in Boulos, N. et al., 2011. “Chemotherapeutic agents circumvent emergence of dasatinib-resistant BCR-ABL kinase mutations in a precise mouse model of Philadelphia chromosome-positive acute lymphoblastic leukemia, Blood, 117:3585-3595 and Nathanson, D. 2014 “Co-targeting of convergent nucleotide biosynthetic pathways for leukemia eradication” J. Exp. Med. 211(3): 473-486, all of which are incorporated herein by reference.
Bioluminescent imaging and data analysis were performed using a Xenogen IVIS-200 system and Living Image Version 3.01 software (Caliper Life Sciences). […] Total flux measurements (photons/second) were quantified over the whole-animal body or a contour drawn around a target organ. […]
To evaluate the efficacy of Compound 9R and (R)-DI-82 in an in vivo B-ALL model, firefly luciferase—marked p185^BCR-ABL/Arf^−/− cells were inoculated intravenously in NSG mice. 4 days, 6 days, 8 days and 11 days after inoculation, bioluminescence imaging (BLI) of firefly luciferase-marked p185^BCR-ABL/Arf^−/− ALL-bearing NSG mice treated with 50 mg/kg compound 9R or 50 mg/kg (R)-DI-82 were measured. […]

T1 sequence (P27707 whole entry): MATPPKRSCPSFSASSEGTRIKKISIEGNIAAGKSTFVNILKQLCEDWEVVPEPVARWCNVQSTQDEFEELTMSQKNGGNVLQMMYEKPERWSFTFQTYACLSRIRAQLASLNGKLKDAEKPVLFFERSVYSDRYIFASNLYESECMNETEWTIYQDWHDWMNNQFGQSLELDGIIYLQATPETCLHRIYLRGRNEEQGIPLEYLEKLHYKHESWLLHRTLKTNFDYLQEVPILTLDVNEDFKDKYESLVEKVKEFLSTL
dCK (Mus musculus, UniProt P43346), sequence (P43346 whole entry): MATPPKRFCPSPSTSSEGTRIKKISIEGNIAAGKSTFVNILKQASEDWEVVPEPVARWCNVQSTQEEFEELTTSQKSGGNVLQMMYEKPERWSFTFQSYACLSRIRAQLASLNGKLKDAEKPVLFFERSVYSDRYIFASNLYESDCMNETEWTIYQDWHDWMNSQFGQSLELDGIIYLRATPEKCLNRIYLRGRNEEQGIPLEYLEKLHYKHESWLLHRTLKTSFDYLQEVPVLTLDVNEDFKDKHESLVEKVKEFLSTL

Turning to `COc1ccc(-c2nc([C@H](C)Sc3nc(N)cc(N)n3)c(C)s2)cc1OCCN1CCOCC1` [Compound 9S, (S)-2-(1-(2-(4-methoxy-3-(2-morpholinoethoxy)phenyl)-5-methylthiazol-4-yl)ethylthio)pyrimidine-4,6-diamine], in assay [1] ([3H]-dCyd uptake), the pIC50 is 6.33.
For `COc1ccc(-c2nc([C@@H](C)Sc3nc(N)cc(N)n3)c(C)s2)cc1OCCN1CCOCC1` [Compound 9R, (R)-2-(1-(2-(4-methoxy-3-(2-morpholinoethoxy)phenyl)-5-methylthiazol-4-yl)ethylthio)pyrimidine-4,6-diamine], the “inhibition of dCK activity in vivo ([18F]L-FAC PET/CT)” value in assay [2] was “strongly inhibit dCK activity in vivo; also recorded: greater inhibition of dCK”. Besides, the figures for the “tumor burden growth (human CD45 by FACS)” value in assay [3] (25 mg/Kg), in assay [3] (50 mg/Kg) and in assay [3] (100 mg/Kg) were “significant increase post cells inoculation day 29”, “slowly increased during Day 29 to Day 44 post cell inoculation” and “slowly increased during Day 29 to Day 44 post cell inoculation”, respectively. For the same compound, the Median survival in assay [3] (25 mg/kg po BID x 46 days) came to 49 days; in assay [3] (50 mg/kg po BID x 46 days), 54 days; in assay [3] (100 mg/kg po BID x 46 days), 54 days. For the same compound, the “ILS (increase in life-span)” value in assay [3] (25 mg/kg po BID) stood at 0%; in assay [3] (50 mg/kg po BID), 10%; in assay [3] (100 mg/kg po BID) it was 10%. In addition, the “tumor burden in peripheral blood vs vehicle” value in assay [3] (100 mg/kg, day 44 post cell inoculation, p=0.021) is on record as “significant antitumor effects”. The pIC50 is 8.50 in assay [1] ([3H]-dCyd uptake); 8.39 in assay [1] ([3H]dC uptake, 0 mg/mL BSA); 8.16 in assay [1] ([3H]dC uptake, 25 mg/mL BSA); 7.94 in assay [1] ([3H]dC uptake, 50 mg/mL BSA).
For the compound `COc1ccc(-c2nc([C@@H](C)Sc3nc(N)cc(N)n3)c(C)s2)cc1OCCNS(C)(=O)=O` [(R)-DI-82, (R)—N-(2-(5-(4-(1-(4,6-diaminopyrimidin-2-ylthio)ethyl)-5-methylthiazol-2-yl)-2-methoxyphenoxy)ethyl)methanesulfonamide], in assay [4], the “efficacy in the p185BCR-ABL/Arf-/- ALL model (bioluminescence)” value was “show efficacy”.
